Measured values: publication PMC7679387, “VZHE-039, a novel antisickling agent that prevents erythrocyte sickling under both hypoxic and anoxic conditions” (Scientific Reports, 2020)
“And” between values parts separate entries of the source, which are not always exact repeats. Equal entries are not always repeated. “Also recorded” adds a separate entry of the source.

Legend:
SS cells = experiment: Antisickling study with SS cells under hypoxia (2.5% O2); format: cell-based, human; conditions: 20% hematocrit, […] O2, 37 °C
Description: (§1) For our previously studied compounds (e.g., INN-312, TD-7, SAJ-310, INN-298) that incorporate methoxyPy substitution to vanillin analogs, we observed a significant increase in functional and biological activity as a result of increased protein interactions[31],[33],[35],[36]. We therefore expected similar effects for VZHE-039, which we tested by following VZHE-039 activity (measured by Hb adduct formation, P50-shift and RBC sickling inhibition) using SS blood. Briefly, we incubated 0.5, 1, and 2 mM concentrations of VZHE-039 with whole blood suspensions from subjects with homozygous SCD (Hct of 20%) under hypoxic conditions (2.5% O2/97.5% N2) at 37 °C for 2 h for expected peak adduct. Aliquot blood samples were drawn into a fixative (2% glutaraldehyde solution), and sickling was assessed by microscopy[31],[33],[35],[36]. Aliquot samples were also subjected to cation-exchange HPLC analyses to assess the degree of Hb modification to the high-affinity adduct form (Hb adduct formation), as well as standard O2 equilibrium curves (OEC) to assess P50-shifts using hemox analyzer[31],[33],[35],[36]. […] The improved potency of Voxelotor has been attributed to reduced binding stoichiometry, i.e. while Voxelotor binds Hb at a 1:1 ratio, VZHE-039 binds Hb at a 2:1 ratio. […] This observation, as will be discussed later is likely due to a meaningful contribution from the novel O2-independent antisickling activity as result of the strong contact with the αF-helix.
(§2) The effect of VZHE-039 on RBC sickling, Hb modification, and Hb oxygen equilibrium was studied utilizing samples from consented individuals with homozygous SCD following previous procedure. Briefly, blood suspended in Hemox buffer and supplemented with glucose and bovine serum albumin, to a final hematocrit of 20% were incubated under air in the absence or presence of 0.5 mM, 1 mM and 2 mM VZHE-039 at 37 °C for 1 h. This was followed by incubating the suspensions under hypoxic conditions (2.5% O2/97.5% N2) at 37 °C for 2 h. Aliquot samples were obtained and fixed with 2% glutaraldehyde solution without exposure to air, and then subjected to microscopic morphological analysis of bright field images (at × 40 magnification) of single layer cells on an Olympus BX40 microscope fitted with an Infinity 2 camera (Olympus), and the coupled Image Capture software. Leftover samples were washed in phosphate-buffer saline, and hemolyzed in hypotonic lysis buffer for subsequent Hb-modification and oxygen equilibrium analyses.

HbS = target: T1, HbS (Homo sapiens, UniProt P69905); experiment: Hb modification (HbS adduct formation) by cation-exchange HPLC of lysates from SS cells; format: cell-based; conditions: SS cells, 20% hematocrit, HPLC of hemolysates
T1 construct: whole blood suspensions from subjects with homozygous SCD (Hct of 20%); from tissue; host or cells: whole blood / red blood cells of patients with homozygous SS sickle cell disease; lysate for HPLC and OEC
T1 sequence (P69905 2-142): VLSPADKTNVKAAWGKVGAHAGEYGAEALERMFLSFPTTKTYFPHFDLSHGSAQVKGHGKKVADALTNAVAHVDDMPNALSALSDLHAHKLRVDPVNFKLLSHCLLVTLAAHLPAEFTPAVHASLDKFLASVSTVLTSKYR
T1 sequence (P68871 with tags, fused parts or gaps E7V partner): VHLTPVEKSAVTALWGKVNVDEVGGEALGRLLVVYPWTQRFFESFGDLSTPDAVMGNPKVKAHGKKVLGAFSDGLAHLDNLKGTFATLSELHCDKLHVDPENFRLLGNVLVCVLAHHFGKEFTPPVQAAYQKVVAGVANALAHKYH
Description: as §1, §2
Finally, for the Hb adduct formation studies, the above clarified lysates were subjected to cation-exchange HPLC (Hitachi D-7000 Series, Hitachi Instruments, Inc., San Jose, CA), using a weak cation-exchange column (Poly CAT A: 30 mm × 4.6 mm, Poly LC, Inc., Columbia, MD). A commercial standard consisting of approximately equal amounts of composite HbF, HbA, HbS and HbC (Helena Laboratories, Beaumont, TX), was utilized as the reference for isotypes. The areas of new peaks, representing HbS adducts, were obtained, calculated as percentage fractions of total Hb area, and reported as levels of modified Hb.

SS RBCs = experiment: pO2-dependent degree of sickling in Hemox Analyzer; format: cell-based, human; conditions: Hct 20%
Description: In a confirmatory study, a pO2 dependent degree of sickling of VZHE-039 at 1 and 2 mM doses, with Voxelotor as a control was performed using a Hemox analyzer. […] Oksenberg et al.reported similar observations with Voxelotor[28], where the compound lost its potent antisickling activity at low pO2 values.
The second study established pO2 dependent degree of sickling of VZHE-039, with Voxelotor as a control. Concurrently, blood samples, hematocrit 20%, were incubated without any drug (control) or with 1, or 2 mM VZHE-039 at 37 °C for 1 h. A second control sample was incubated with 2 mM Voxelotor. At conclusion, 100 uL aliquots of each suspension were mixed with 2.5 mL Hemox buffer (pH 7.4, supplemented with antifoam), and transferred into the sample chamber of the Hemox Analyzer. Compressed air was then flushed through the sample to ensure complete oxygenation (at 150 mmHg). Nitrogen gas was then introduced into the sample chamber, and 50 uL aliquots were obtained and fixed at defined pO2 values. At conclusion, all fixed samples were subjected to microscopic analysis for their degree of sickling, and results were plotted using Prism Graph Pad software. The experiments were conducted in three replicates on different days, and mean and standard deviation values are reported.

Hb = target: T2, Hb (Homo sapiens, UniProt P69905); experiment: Oxygen equilibrium (P50 shift) of lysates from SS cells, Hemox Analyzer; format: cell-based; conditions: 20% hematocrit
T2 construct: whole blood suspensions from subjects with homozygous SCD (Hct of 20%); from tissue; host or cells: whole blood / red blood cells of patients with homozygous SS sickle cell disease; lysate for HPLC and OEC
T2 sequence (P69905 2-142): as the sequence (P69905 2-142) above
T2 sequence (P68871 with tags, fused parts or gaps E7V partner): as the sequence (P68871 with tags, fused parts or gaps E7V partner) above
Description: as §1, §2
For the oxygen equilibrium studies, 100 μL aliquot samples from the above clarified lysate were added to 4 mL of 0.1 M potassium phosphate buffer, pH 7.0, in cuvettes and subjected to hemoximetry analysis using a Hemox Analyzer (TCS Scientific Corp.) to determine the P50 values.

P50 Shift (ΔP50) (Hb; 0.5 mM): 22% and 22.3 ± 8.7%
P50 Shift (ΔP50) (Hb; 1 mM): 47% and 46.6 ± 5.4%
P50 Shift (ΔP50) (Hb; 2 mM): 76% and 75.6 ± 2.5%
SMILES: O=Cc1c(O)cccc1OCc1cccc(CO)n1 [VZHE-039, 2-((6-(Hydroxymethyl)pyridin-2-yl)methoxy)-6-hydroxybenzaldehyde]
Sickling Inhibition (SS cells; 0.5 mM): 34.5 ± 2.4%
Sickling Inhibition (SS cells; 1 mM): 63.7 ± 6.9%
Sickling Inhibition (SS cells; 2 mM): 92.8 ± 5.5%
inhibition at 500 µM (SS cells; Homo sapiens, 0.5 mM, read-out: Sickling Inhibition): 35%
inhibition at 1000 µM (SS cells; Homo sapiens, 1 mM, read-out: Sickling Inhibition): 63%
inhibition at 2000 µM (SS cells; Homo sapiens, 2 mM, read-out: Sickling Inhibition): 93%
Hb Modification (HbS; 0.5 mM): 38% and 38.0 ± 7.2%
Hb Modification (HbS; 1 mM): 72% and 72.6 ± 6.4%
Hb Modification (HbS; 2 mM): 97.4 ± 6.7%
pO2-dependent sickling inhibition (in words) (SS RBCs; 1 mM): delay in initiation of sickling, as well as reduction in the total number of sickled cells; also recorded: significant delay in initiation of sickling
pO2-dependent sickling inhibition (in words) (SS RBCs; 2 mM): complete inhibition of sickling at the lowest recorded pO2; also recorded: complete sickling inhibition at all pO2
